Where two headings read alike, the source gives them in different places.
Experiments:
[1] = Example 3 urinary pharmacokinetics, normal hepatic function vs hepatic impairment; assay type: in vivo, human; conditions: for Urine Recovery as % of Dose, Geomean / Urine Recovery as % of Dose, Mean: 0-32 h, single intranasal dose; for CL renal: both sexes, other: intranasal (drug-soaked pledgets in the nasal cavity), 160 mg; for CL renal / dose excreted: human, urine; for dose excreted: other: intranasal, read-out: 0-32 h urinary recovery of unchanged drug as percent of the administered dose
Protocol: Urine was collected prior to dosing and from 0-2, 2-4, 4-8, 8-12, 12-24, and 24-32 hours after beginning of dose application. […] Urinary pharmacokinetic parameters included total urinary recovery (μg), urinary recovery as a percentage of dose, and CLr.

[2] = topical application with cotton pledgets; cited from earlier work
[3] = Example 3 plasma pharmacokinetics, normal hepatic function vs hepatic impairment; conditions: for AUC(0-t) / AUC(0-inf) / Cmax / Tmax / half-life: both, human, 160 mg
[4] = normal hepatic function, single intranasal 160 mg cocaine HCl
[5] = subjects with hepatic impairment, 32 hours post administration
[6] = hepatic impairment, single intranasal 160 mg cocaine HCl, plasma

With COC(=O)[C@H]1[C@@H](OC(=O)c2ccccc2)C[C@@H]2CC[C@H]1N2C [Cocaine, cocaine, reference compound] the “Urine Recovery as % of Dose, Geomean” value ([1]; Impaired hepatic function) was 0.071 % of Dose, the “Urine Recovery as % of Dose, Mean” value ([1]; Impaired hepatic function) was 0.143 % of Dose and the “Urine Recovery as % of Dose, Geomean” value ([1]; Normal hepatic function) was 0.057 % of Dose. The “Urine Recovery as % of Dose, Mean” value ([1]; Normal hepatic function) was 0.072 % of Dose, the CL renal ([1]; Impaired hepatic function, Table 26, read-out: CLr Geomean (converted)) was 7.8 mL/min and the CL renal ([1]; Impaired hepatic function, Table 26, read-out: CLr Mean (converted)) was 16.6 mL/min. The CL renal ([1]; Normal hepatic function, Table 26, read-out: CLr Geomean (converted)) was 19.5 mL/min, the CL renal ([1]; Normal hepatic function, Table 26, read-out: CLr Mean (converted)) was 29.8 mL/min and the CL renal ([1]; hepatically impaired patients, 32 hours from administration, read-out: renal clearance, range observed) was 1.27 to 32 mL/min. It also gave a CL renal ([1]; subjects with hepatic impairment, Table 30, read-out: Renal Clearance, geometric mean (converted)) of 7.79 mL/min, a CL renal ([1]; subjects with hepatic impairment, Table 30, read-out: Renal Clearance, mean (converted)) of 16.6 mL/min and a CL renal ([1]; subjects with hepatic impairment, Table 30, read-out: Renal Clearance, median (converted)) of 15.6 mL/min. The CL renal ([1]; subjects with hepatic impairment, read-out: Renal Clearance, geometric mean (converted)) was 7.79 mL/min, the CL renal ([1]; subjects with hepatic impairment, read-out: Renal Clearance, mean (converted)) was 16.6 mL/min and the CL renal ([1]; subjects with hepatic impairment, read-out: Renal Clearance, median (converted)) was 15.6 mL/min. It also gave a CL renal ([1]; subjects with normal hepatic function, Table 29, read-out: Renal Clearance, geometric mean (converted)) of 19.5 mL/min, a CL renal ([1]; subjects with normal hepatic function, Table 29, read-out: Renal Clearance, mean (converted)) of 29.8 mL/min and a CL renal ([1]; subjects with normal hepatic function, Table 29, read-out: Renal Clearance, median (converted)) of 22 mL/min. The CL renal ([1]; subjects with normal hepatic function, read-out: Renal Clearance, geometric mean (converted)) was 19.5 mL/min, the CL renal ([1]; subjects with normal hepatic function, read-out: Renal Clearance, mean (converted)) was 29.8 mL/min and the CL renal ([1]; subjects with normal hepatic function, read-out: Renal Clearance, median (converted)) was 22 mL/min. For the same molecule, the dose excreted ([1]; hepatic impairment) was 0.071%, the dose excreted ([1]; normal hepatic function) was 0.057% and the “0-32 h Urinary Recovery (geometric mean)” value [1, 4] was 81.5 µg. For the same molecule, the “0-32 h Urinary Recovery (mean)” value [1, 4] was 102.25 µg, the “0-32 h Urinary Recovery (median)” value [1, 4] was 108.1 µg and the “0-32 h Urinary Recovery (geometric mean)” value [1, 5] was 101.4 µg. The “0-32 h Urinary Recovery (mean)” value [1, 5] was 204 µg, the “0-32 h Urinary Recovery (median)” value [1, 5] was 193.5 µg and the “fraction absorbed from a cottonoid pledget” value [2] was “approximately 37%”. For the same molecule, the “AUClast Ratio Grade B/Normal” value ([3]; ANOVA) was 284.54%, the “AUClast Ratio Grade C/Normal” value ([3]; ANOVA) was 179.88% and the “CL/F Ratio Grade B/Normal (GMR)” value ([3]; ANOVA) was 36.25%. The “CL/F Ratio Grade C/Normal (GMR)” value ([3]; ANOVA) was 55.28%, the “Cmax Ratio Grade C/Normal” value ([3]; ANOVA) was 68.13% and the “Cmax Ratio Grade B/Normal” value ([3]; ANOVA, excludes one outlier subject) was 104.89%. The “AUClast, times higher than normal subjects” value ([3]; Grade B hepatic impairment) was 2.8 times, the “CL/F (Geometric Least Squares Mean, ANOVA)” value ([3]; Grade B hepatic impairment) was 629 L/h and the “CL/F, percent reduction vs normal” value ([3]; Grade B hepatic impairment) was 64%. For the same molecule, the “geometric mean Cmax, percent higher than normal” value ([3]; Grade B hepatic impairment, outlier excluded) was 5%, the “geometric mean Cmax, percent higher than normal” value ([3]; Grade B hepatic impairment, outlier included) was 56% and the “AUClast, times higher than normal subjects” value ([3]; Grade C hepatic impairment) was 1.8 times. For the same molecule, the “CL/F (Geometric Least Squares Mean, ANOVA)” value ([3]; Grade C hepatic impairment) was 959 L/h, the “CL/F, percent reduction vs normal” value ([3]; Grade C hepatic impairment) was 45% and the “geometric mean Cmax, percent lower than normal” value ([3]; Grade C hepatic impairment) was 32%. For the same molecule, the “CL/F (Geometric Least Squares Mean, ANOVA)” value ([3]; Normal hepatic function) was 1735 L/h, the “geometric mean Cmax, percent lower than normal” value ([3]; all hepatically impaired individuals, outlier excluded) was 7% and the “geometric mean Cmax, percent higher than normal” value ([3]; all hepatically impaired individuals, outlier included) was 27%. It also gave an AUC(0-t) ([3]; plasma, inhaled or intranasal, AUC0→t (Geometric mean), hepatic impairment, single intranasal 160 mg cocaine HCl) of 0.189 µg·h/mL, an AUC(0-t) ([3]; plasma, inhaled or intranasal, AUC0→t (Geometric mean), normal hepatic function, single intranasal 160 mg cocaine HCl) of 0.0792 µg·h/mL and an AUC(0-t) ([3]; plasma, inhaled or intranasal, AUC0→t (Mean), hepatic impairment, single intranasal 160 mg cocaine HCl) of 0.223 µg·h/mL. For the same molecule, the AUC(0-t) ([3]; plasma, inhaled or intranasal, AUC0→t (Mean), normal hepatic function, single intranasal 160 mg cocaine HCl) was 0.0928 µg·h/mL, the AUC(0-t) ([3]; plasma, inhaled or intranasal, AUC0→t (Median), hepatic impairment, single intranasal 160 mg cocaine HCl) was 0.176 µg·h/mL and the AUC(0-t) ([3]; plasma, inhaled or intranasal, AUC0→t (Median), normal hepatic function, single intranasal 160 mg cocaine HCl) was 0.0824 µg·h/mL. For the same molecule, the AUC(0-inf) ([3]; plasma, inhaled or intranasal, AUC0→∞ (Geometric mean), hepatic impairment, single intranasal 160 mg cocaine HCl) was 0.192 µg·h/mL, the AUC(0-inf) ([3]; plasma, inhaled or intranasal, AUC0→∞ (Geometric mean), normal hepatic function, single intranasal 160 mg cocaine HCl) was 0.0824 µg·h/mL and the AUC(0-inf) ([3]; plasma, inhaled or intranasal, AUC0→∞ (Mean), hepatic impairment, single intranasal 160 mg cocaine HCl) was 0.227 µg·h/mL. For the same molecule, the AUC(0-inf) ([3]; plasma, inhaled or intranasal, AUC0→∞ (Mean), normal hepatic function, single intranasal 160 mg cocaine HCl) was 0.0953 µg·h/mL, the AUC(0-inf) ([3]; plasma, inhaled or intranasal, AUC0→∞ (Median), hepatic impairment, single intranasal 160 mg cocaine HCl) was 0.177 µg·h/mL and the AUC(0-inf) ([3]; plasma, inhaled or intranasal, AUC0→∞ (Median), normal hepatic function, single intranasal 160 mg cocaine HCl) was 0.0833 µg·h/mL. For the same molecule, the Cmax ([3]; plasma, inhaled or intranasal, Cmax (Geometric mean), hepatic impairment, single intranasal 160 mg cocaine HCl) was 0.0412 µg/mL, the Cmax ([3]; plasma, inhaled or intranasal, Cmax (Geometric mean), normal hepatic function, single intranasal 160 mg cocaine HCl) was 0.0442 µg/mL and the Cmax ([3]; plasma, inhaled or intranasal, Cmax (Mean), hepatic impairment, single intranasal 160 mg cocaine HCl) was 0.0507 µg/mL. For the same molecule, the Cmax ([3]; plasma, inhaled or intranasal, Cmax (Mean), normal hepatic function, single intranasal 160 mg cocaine HCl) was 0.0506 µg/mL, the Cmax ([3]; plasma, inhaled or intranasal, Cmax (Median), hepatic impairment, single intranasal 160 mg cocaine HCl) was 0.0426 µg/mL and the Cmax ([3]; plasma, inhaled or intranasal, Cmax (Median), normal hepatic function, single intranasal 160 mg cocaine HCl) was 0.0536 µg/mL. It also gave a Tmax ([3]; plasma, inhaled or intranasal, Tmax (Geometric mean), hepatic impairment, single intranasal 160 mg cocaine HCl) of 0.828 h, a Tmax ([3]; plasma, inhaled or intranasal, Tmax (Geometric mean), normal hepatic function, single intranasal 160 mg cocaine HCl) of 0.422 h and a Tmax ([3]; plasma, inhaled or intranasal, Tmax (Mean), hepatic impairment, single intranasal 160 mg cocaine HCl) of 1.09 h. The Tmax ([3]; plasma, inhaled or intranasal, Tmax (Mean), normal hepatic function, single intranasal 160 mg cocaine HCl) was 0.431 h, the Tmax ([3]; plasma, inhaled or intranasal, Tmax (Median), hepatic impairment, single intranasal 160 mg cocaine HCl) was 0.75 h and the Tmax ([3]; plasma, inhaled or intranasal, Tmax (Median), normal hepatic function, single intranasal 160 mg cocaine HCl) was 0.5 h. For the same molecule, the half-life ([3]; plasma, inhaled or intranasal, t1/2 (Geometric mean), hepatic impairment, single intranasal 160 mg cocaine HCl) was 4.99 h, the half-life ([3]; plasma, inhaled or intranasal, t1/2 (Geometric mean), normal hepatic function, single intranasal 160 mg cocaine HCl) was 6.62 h and the half-life ([3]; plasma, inhaled or intranasal, t1/2 (Mean), hepatic impairment, single intranasal 160 mg cocaine HCl) was 5.42 h. The half-life ([3]; plasma, inhaled or intranasal, t1/2 (Mean), normal hepatic function, single intranasal 160 mg cocaine HCl) was 8.11 h, the half-life ([3]; plasma, inhaled or intranasal, t1/2 (Median), hepatic impairment, single intranasal 160 mg cocaine HCl) was 5.63 h and the half-life ([3]; plasma, inhaled or intranasal, t1/2 (Median), normal hepatic function, single intranasal 160 mg cocaine HCl) was 6.93 h. For the same molecule, the AUC(0-inf) ([3]; plasma, other: intranasal (drug-soaked pledgets in the nasal cavity), AUCinf, range observed, hepatically impaired patients) was 0.088 to 0.366 µg·h/mL, the AUC(0-t) ([3]; plasma, other: intranasal (drug-soaked pledgets in the nasal cavity), AUClast (Geometric Least Squares Mean, ANOVA), Grade B hepatic impairment) was 0.225 µg·h/mL and the AUC(0-t) ([3]; plasma, other: intranasal (drug-soaked pledgets in the nasal cavity), AUClast (Geometric Least Squares Mean, ANOVA), Grade C hepatic impairment) was 0.142 µg·h/mL. It also gave an AUC(0-t) ([3]; plasma, other: intranasal (drug-soaked pledgets in the nasal cavity), AUClast (Geometric Least Squares Mean, ANOVA), Normal hepatic function) of 0.0792 µg·h/mL, a Cmax ([3]; plasma, other: intranasal (drug-soaked pledgets in the nasal cavity), Cmax (Geometric Least Squares Mean, ANOVA), Grade B hepatic impairment, excludes one subject with anomalous concentration at 7 minutes) of 0.0464 µg/mL and a Cmax ([3]; plasma, other: intranasal (drug-soaked pledgets in the nasal cavity), Cmax (Geometric Least Squares Mean, ANOVA), Grade C hepatic impairment) of 0.0301 µg/mL. It also gave a Cmax ([3]; plasma, other: intranasal (drug-soaked pledgets in the nasal cavity), Cmax (Geometric Least Squares Mean, ANOVA), Normal hepatic function) of 0.0442 µg/mL, a Cmax ([3]; plasma, other: intranasal (drug-soaked pledgets in the nasal cavity), Cmax, range observed, hepatically impaired patients) of 0.0162 to 0.0852 µg/mL and a Tmax ([3]; plasma, other: intranasal (drug-soaked pledgets in the nasal cavity), Tmax (approximate), normal hepatic function, plasma) of about 0.5 h. The Tmax ([3]; plasma, other: intranasal (drug-soaked pledgets in the nasal cavity), Tmax, range observed, hepatically impaired patients) was 0.306 to 1.87 h, the “plasma exposure after Tmax, times higher than normal hepatic function” value ([3]; hepatic impairment group) was “about 2.5 times” and the “AUC0→t (Max)” value [3, 6] was 0.523 µg·h/mL. The “AUC0→t (Min)” value [3, 6] was 0.0895 µg·h/mL, the “AUC0→∞ (Max)” value [3, 6] was 0.528 µg·h/mL and the “AUC0→∞ (Min)” value [3, 6] was 0.0909 µg·h/mL. For the same molecule, the “Clast (Geometric mean)” value [3, 6] was 0.00027 µg/mL, the “Clast (Max)” value [3, 6] was 0.00173 µg/mL and the “Clast (Mean)” value [3, 6] was 0.000393 µg/mL. The “Clast (Median)” value [3, 6] was 0.000211 µg/mL, the “Clast (Min)” value [3, 6] was 0.000115 µg/mL and the “Cmax (Max)” value [3, 6] was 0.119 µg/mL. For the same molecule, the “Cmax (Min)” value [3, 6] was 0.0171 µg/mL, the “Tlast (Geometric mean)” value [3, 6] was 31.6 h and the “Tlast (Max)” value [3, 6] was 32.0 h. For the same molecule, the “Tlast (Mean)” value [3, 6] was 31.6 h and the “Tlast (Median)” value [3, 6] was 32.0 h.

From US10413505B1, “Pharmaceutical compositions and methods of using the same” (priority 2017, dated 2019)
